Source: patent US20250025443A1, “COMPOUNDS AND METHODS FOR TREATING CORONA VIRUSES” (CLEAR CREEK BIO, INC., priority 2021, published 2025)
Read-outs that look alike come from different tables or passages of the source.

Target: SARS-CoV-2 Papain-Like Protease (PLpro) (Severe acute respiratory syndrome coronavirus 2 (2019-nCoV) (SARS-CoV-2), UniProt P0DTD1)
Test: biochemical
Conditions: read-out: PLpro IC50
[1] = SARS-CoV-2 PLpro enzymatic fluorescence assay
[2] = PLpro enzymatic fluorescence assay, class symbols

Compound | IC50 [1] | IC50 [2]
COc1cc(C2(NC(=O)c3cc(Oc4ccncc4)ccc3C)CC2)c2cccnc2c1 [Compound 584, N-(1-(7-Methoxyquinolin-5-yl)cyclopropyl)-2-methyl-5-(pyridin-4-yloxy)benzamide] | 0.1 to 1 µM | 
Cc1ccc(OCCN(C)C)cc1C(=O)NC1(c2ccccc2F)CC1 [Compound 272, 5-(2-(Dimethylamino)ethoxy)-N-(1-(2-fluorophenyl)cyclopropyl)-2-methylbenzamide] | > 5 µM | 
Cc1ccc(N)cc1C(=O)NC(C#N)c1cccc2ccccc12 (stereo not shown) [Compound 195, 5-Amino-N-(cyano(naphthalen-1-yl)methyl)-2-methylbenzamide] | > 5 µM | 
C=C(C)c1cc(C2(NC(=O)c3cc(OCCNC)ccc3C)CC2)c2cccnc2c1 [Compound 616, 2-Methyl-5-(2-(methylamino)ethoxy)-N-(1-(7-(prop-1-en-2-yl)quinolin-5-yl)cyclopropyl)benzamide] |  | < 0.1 µM
(S)—N-(1-(7-Methoxy-2-methylquinolin-5-yl)cyclopropyl)-2-methyl-5-((1-(methyl-d3)azetidin-2-yl)methoxy)benzamide [Compound 798] |  | < 0.1 µM
C=Cc1cc(C2(NC(=O)c3cc(OC[C@@H]4CCCN4C)ccc3C)CC2)c2cccnc2c1 [Compound 717, (S)-2-Methyl-5-((1-methylpyrrolidin-2-yl)methoxy)-N-(1-(7-vinylquinolin-5-yl)cyclopropyl)benzamide] |  | < 0.1 µM
CNCc1cc2cc(C)c(C(=O)NC3(c4cccc5ccccc45)CC3)cc2o1 [Compound 220, 5-Methyl-2-((methylamino)methyl)-N-(1-(naphthalen-1-yl)cyclopropyl)benzofuran-6-carboxamide] | < 0.1 µM | 
CNCCOc1ccc(C)c(C(=O)NC2(c3cccc4ccccc34)CC2)c1 [Compound 233, 2-Methyl-5-(2-(methylamino)ethoxy)-N-(1-(naphthalen-1-yl)cyclopropyl)benzamide] | < 0.1 µM | 
C=C(C)c1cc(C2(NC(=O)c3cc(OC[C@H](C)N)ccc3C)CC2)c2cccnc2c1 [Compound 734, (S)-5-(2-Aminopropoxy)-2-methyl-N-(1-(7-(prop-1-en-2-yl)quinolin-5-yl)cyclopropyl)benzamide] |  | < 0.1 µM
Cc1ccc(N(C)CCN(C)C)cc1C(=O)NC1(c2cccc3ccccc23)CC1 [Compound 421] | < 0.1 µM | 
Cc1ccc(OC[C@@H]2CCN2)cc1C(=O)NC1(c2cccc3cc(F)ccc23)CC1 [Compound 392, (S)-5-(Azetidin-2-ylmethoxy)-N-(1-(6-fluoronaphthalen-1-yl)cyclopropyl)-2-methylbenzamide] | < 0.1 µM | 
CNCCOc1ccc(C)c(C(=O)NC2(c3cccc4cnccc34)CC2)c1 [Compound 375, N-(1-(Isoquinolin-5-yl)cyclopropyl)-2-methyl-5-(2-(methylamino)ethoxy)benzamide] | < 0.1 µM | 
Cc1ccc(OCC2CCN2C)cc1C(=O)NC1(c2cc(Br)cc3ccccc23)CC1 (stereo not shown) [Compound 461, N-(1-(3-Bromonaphthalen-1-yl)cyclopropyl)-2-methyl-5-((1-methylazetidin-2-yl)methoxy)benzamide] | < 0.1 µM | 
Cc1ccc(OC2CCCN(C)C2)cc1C(=O)NC1(c2cccc3ccccc23)CC1 (stereo not shown) [Compound 289, 2-Methyl-5-((1-methylpiperidin-3-yl)oxy)-N-(1-(naphthalen-1-yl)cyclopropyl)benzamide] | 0.1 to 1 µM | 
Cc1cc2cccnc2cc1C(=O)N[C@H](C)c1cccc(-c2ccc(CN[C@H]3CC[C@@H](O)C3)s2)c1 [Compound 154, N-((R)-1-(3-(5-((((1S,3R)-3-Hydroxycyclopentyl)amino)methyl)thiophen-2-yl)phenyl)ethyl)-6-methylquinoline-7-carboxamide] | 1 to 5 µM | 
Cc1ccc(OCCNS(C)(=O)=O)cc1C(=O)NC1(c2cccc3ccccc23)CC1 [Compound 424, 2-Methyl-5-(2-(methylsulfonamido)ethoxy)-N-(1-(naphthalen-1-yl)cyclopropyl)benzamide] | 0.1 to 1 µM | 

Compound | IC50 [1] | IC50 [2]
Cc1ccc([N+](=O)[O-])cc1CNC(c1cccc2ccccc12)C1COC1 (stereo not shown) [Compound 110] |  | > 5 µM
Cc1ccc(OCC2COCCN2)cc1C(=O)NC1(c2cccc3ccccc23)CC1 (stereo not shown) [Compound 286, 2-Methyl-5-(morpholin-3-ylmethoxy)-N-(1-(naphthalen-1-yl)cyclopropyl)benzamide] | < 0.1 µM | 
COc1cc(C2(NC(=O)c3cc(OCC4CCN4C)ccc3C)CC2)c2ccccc2c1 (stereo not shown) [Compound 384, N-(1-(3-methoxynaphthalen-1-yl)cyclopropyl)-2-methyl-5-((1-methylazetidin-2-yl)methoxy)benzamide] | < 0.1 µM | 
Cc1cc2nc[nH]c2cc1C(=O)N[C@H](C)c1cccc(-c2ccc(CN3CCCC3)s2)c1 [Compound 126, (R)-5-Methyl-N-(1-(3-(5-(pyrrolidin-1-ylmethyl)thiophen-2-yl)phenyl)ethyl)-1H-benzo[d]imidazole-6-carboxamide] | 1 to 5 µM | 
Cc1ccc(OCCN(C)C)cc1C(=O)NC1(c2cc(-c3cccs3)cc3ccccc23)CC1 [Compound 420, 5-(2-(Dimethylamino)ethoxy)-2-methyl-N-(1-(3-(thiophen-2-yl)naphthalen-1-yl)cyclopropyl)benzamide] | < 0.1 µM | 
Cc1ccc(N2CCCNCC2)cc1C(=O)NC1(c2cccc3ccccc23)CC1 [Compound 411, 5-(1,4-Diazepan-1-yl)-2-methyl-N-(1-(naphthalen-1-yl)cyclopropyl)benzamide] | < 0.1 µM | 
Cc1cc2cc(CN)oc2cc1C(=O)NC1(c2cccc3ccccc23)CC1 [Compound 236] | 0.1 to 1 µM | 
Cc1ccc(OCCNCCO)cc1C(=O)NC1(c2cccc3ccccc23)CC1 [Compound 359, 5-(2-((2-Hydroxyethyl)amino)ethoxy)-2-methyl-N-(1-(naphthalen-1-yl)cyclopropyl)benzamide] | < 0.1 µM | 
CNCc1cc2cc(C)c(C(=O)NC3(c4cccc5ccccc45)CC3)cc2[nH]1 [Compound 221] | < 0.1 µM | 
COc1cc(C(C)N2CCC(C(=O)NCc3cccc(F)c3)CC2)c2cccnc2c1 (stereo not shown) [Compound 593, N-(3-Fluorobenzyl)-1-(1-(7-methoxyquinolin-5-yl)ethyl)piperidine-4-carboxamide] |  | 1 to 5 µM
Cc1cc2cc(C3COCCN3)[nH]c2cc1C(=O)NC1(c2cccc3ccccc23)CC1 (stereo not shown) [Compound 260, 5-Methyl-2-(morpholin-3-yl)-N-(1-(naphthalen-1-yl)cyclopropyl)-1H-indole-6-carboxamide] | 0.1 to 1 µM | 
CNCCc1cc2cc(C)c(C(=O)NC3(c4cccc5ccccc45)CC3)cc2[nH]1 [Compound 222, 5-Methyl-2-(2-(methylamino)ethyl)-N-(1-(naphthalen-1-yl)cyclopropyl)-1H-indole-6-carboxamide] | 0.1 to 1 µM | 
Cc1cc2c(cc1C(=O)N[C@H](C)c1cccc3ccccc13)OCO2 [Compound 145, (R)-6-Methyl-N-(1-(naphthalen-1-yl)ethyl)benzo[d][1,3]dioxole-5-carboxamide] | 1 to 5 µM | 
Cc1ccc(C2CCNCC2)cc1C(=O)NC1(c2cccc3ccccc23)CC1 [Compound 407, 2-Methyl-N-(1-(naphthalen-1-yl)cyclopropyl)-5-(piperidin-4-yl)benzamide] | < 0.1 µM | 
C=C(C)c1cc(C2(NC(=O)c3cc(OC[C@@H]4CCCN4)ccc3C)CC2)c2cccnc2c1 [Compound 715, (S)-2-Methyl-N-(1-(7-(prop-1-en-2-yl)quinolin-5-yl)cyclopropyl)-5-(pyrrolidin-2-ylmethoxy)benzamide] |  | < 0.1 µM
